Measured values published in US20240025906A1 (NEURON23, INC., priority 2022, published 2024).
Like-named read-outs stand apart in the source and are kept apart here.

Assays:
TYK2 JH2 = molecular target: T1, TYK2 JH2 (Homo sapiens, UniProt P29597); experiment: TYK2 JH2 binding assay (KINOMEscan KdELECT competitive binding); details: TYK2 JH2 domain
T1 construct: purchased DiscoverX (KINOMEscan KdELECT service); host or cells: E. coli BL21-derived (T7 phage display) or HEK-293
Procedure, shortened: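 JH2-domain fragment, expressed as T7 phage tag in BL21-derived E. coli or DNA-tagged from HEK-293, competed with test compound against bead-immobilized biotinylated ligand in binding buffer (0.9% DMSO). 1 h shaking at room temperature; bound kinase eluted with 0.5 μM free ligand and quantified by qPCR. Kd from 11-point 3-fold dilutions.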

[1] = tested on: JAK1/TYK2 pSTAT5 (Tyr694/699) in THP-1 cell line; experiment: IFNa-stimulated JAK1/TYK2 pSTAT5 (Tyr694/699) inhibition cellular assay, AlphaLISA; assay type: cell-based; details: THP-1 cells, AlphaLISA (Assay B)
Procedure, shortened: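 pSTAT5 (Tyr694/699) in lysates quantified by AlphaLISA (615 nm) after 30 min IFNa stimulation (100 ng/mL stock) of THP-1 cells. The cells, 2e4 per well in HBSS, had first been exposed 1 h at 37° C. to eight 6-fold compound dilutions, 10000 down to 0.04 nM final. IC50 fitted by 4PL regression, bottom 0, Hill slope −1.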

[2] = KINOMEscan KdELECT (Assay A), read-out: Biochemical TYK2_DiscoverX_JH2_BND_Kd
[3] = Homo sapiens, IFNa-stimulated pSTAT5 (Tyr694/699), read-out: Cellular_THP1_IFNa-pSTATS_TYK2
[4] = KINOMEscan KdELECT (Assay A), read-out: Biochemical TYK2_JH2_Kd
[5] = Homo sapiens, IFNa-stimulated, read-out: Cellular THP1_IFNa-pSTATS_IC50
[6] = Homo sapiens, IFNa-stimulated, read-out: Cellular_THP1_IFNa-pSTATS_TYK2
[7] = DiscoverX KINOMEscan KdELECT (Assay A), read-out: Biochemical TYK2_DiscoverX_JH2_BND_Kd

T1 sequence (P29597 589-875 limits assumed): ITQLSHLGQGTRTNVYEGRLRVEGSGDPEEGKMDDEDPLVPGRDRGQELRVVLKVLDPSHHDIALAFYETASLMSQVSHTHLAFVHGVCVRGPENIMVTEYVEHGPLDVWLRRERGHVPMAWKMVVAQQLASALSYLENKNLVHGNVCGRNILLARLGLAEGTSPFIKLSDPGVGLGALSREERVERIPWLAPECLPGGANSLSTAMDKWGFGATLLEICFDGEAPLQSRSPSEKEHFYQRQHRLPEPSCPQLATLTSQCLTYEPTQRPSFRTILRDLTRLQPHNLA

Row | Kd (TYK2 JH2; [2]) | IC50 [1, 6] | Kd (TYK2 JH2; [7]) | Compound | also measured
1 | ≤ 100 nM |  |  | CNc1ncc(C#Cc2ccc(OCF)cc2)c2cc(NC(=O)[C@H]3C[C@H]3C)ncc12 [Example 1073, (1S,2R)-N-[5-[2-[4-(fluoromethoxy)phenyl]ethynyl]-8-(methylamino)-2,7-naphthyridin-3-yl]-2-methyl-cyclopropanecarboxamide] | IC50 [1, 3]: ≤ 500 nM
2 |  |  |  | CNc1ncc(-c2cccc(COC)c2)c2cc(NC(=O)C3CC3)ncc12 [Example 168, N-(5-(3-(methoxymethyl)phenyl)-8-(methylamino)-2,7-naphthyridin-3-yl)cyclopropanecarboxamide] | Kd (TYK2 JH2; [4]): ≤ 100 nM; IC50 [1, 5]: > 500 nM
3 | ≤ 100 nM | ≤ 500 nM |  | CNc1ncc(C#Cc2ccc(COC)cc2)c2cc(NC(=O)C3CC3)ncc12 [Example 648, N-(5-((4-(methoxymethyl)phenyl)ethynyl)-8-(methylamino)-2,7-naphthyridin-3-yl)cyclopropanecarboxamide] | 
4 |  | ≤ 500 nM | ≤ 100 nM | CNc1ncc(-c2nc3ccc(OC)cn3n2)c2cc(NC(=O)[C@H]3C[C@H]3C)ncc12 [Example 520, (1S,2R)—N-(5-(6-methoxy-[1,2,4]triazolo[1,5-a]pyridin-2-yl)-8-(methylamino)-2,7-naphthyridin-3-yl)-2-methylcyclopropane-1-carboxamide] | 
5 | ≤ 100 nM |  |  | CNc1ncc(-c2nc3ccc(N4CCOC(C(C)(C)F)C4)cn3n2)c2cc(NC(=O)C3CC3)ncc12 (single isomer, unassigned) [Example 1050] | IC50 ([1]; IFNa-stimulated pSTAT5 (Tyr694/699), read-out: Cellular_THP1_IFNa-pSTATS_TYK2): ≤ 500 nM
6 |  | ≤ 500 nM | ≤ 100 nM | CCNc1ncc(-c2nc3cc(N4CC5CN(C)CC(C4)O5)ccc3o2)c2cc(NC(=O)C3CC3)ncc12 [Example 457, N-(8-(ethylamino)-5-(5-(7-methyl-9-oxa-3,7-diazabicyclo[3.3.1]nonan-3-yl)benzo[d]oxazol-2-yl)-2,7-naphthyridin-3-yl)cyclopropanecarboxamide] | 
7 |  | ≤ 500 nM | ≤ 100 nM | [2H]C([2H])([2H])Nc1ncc(-c2nc3ccc(N4CCC(F)(F)CC4)cn3n2)c2cc(NC(=O)C3CC3)ncc12 [Example 513, N-(5-(6-(4,4-difluoropiperidin-1-yl)-[1,2,4]triazolo[1,5-a]pyridin-2-yl)-8-((methyl-d3)amino)-2,7-naphthyridin-3-yl)cyclopropanecarboxamide] | 
8 | ≤ 100 nM |  |  | CNc1ncc(C#Cc2ccc(-n3c(=O)ccn3C)cn2)c2cc(NC(=O)C3CC3)ncc12 [Example 1001, N-(5-((5-(2-methyl-5-oxo-2,5-dihydro-1H-pyrazol-1-yl)pyridine-2-yl)ethynyl)-8-(methylamino)-2,7-nahphthyridin-3-yl)cyclopropanecarboxamide] | IC50 [1, 3]: ≤ 500 nM
9 |  | ≤ 500 nM | ≤ 100 nM | CNc1ncc(-c2nc3ccc(N4CCO[C@H](C)C4)cn3n2)c2cc(NC(=O)[C@@H]3C[C@@H]3F)ncc12 [Example 549, (1S,2S)-2-fluoro-N-(8-(methylamino)-5-(6-((R)-2-methylmorpholino)-[1,2,4]triazolo[1,5-a]pyridin-2-yl)-2,7-naphthyridin-3-yl)cyclopropane-1-carboxamide] | 
10 | ≤ 100 nM | ≤ 500 nM |  | CNc1ncc(C#Cc2cc3c(cc2C)nnn3C)c2cc(NC(=O)C3CC3)ncc12 [Example 700, N-(5-((1,5-dimethyl-1H-benzo[d][1,2,3]triazol-6-yl)ethynyl)-8-(methylamino)-2,7-naphthyridin-3-yl)cyclopropanecarboxamide] | 
11 | ≤ 100 nM | ≤ 500 nM |  | CNc1ncc(C#Cc2ccc3nc4n(c3c2)CCCC4)c2cc(NC(=O)C3CC3)ncc12 [Example 807, N-(8-(methylamino)-5-((1,2,3,4-tetrahydrobenzo[4,5]imidazo[1,2-a]pyridin-8-yl)ethynyl)-2,7-naphthyridin-3-yl)cyclopropanecarboxamide] | 
12 |  |  |  | CNc1ncc(-c2ccccc2)c2cc(NCc3ccc(OC)cc3)ncc12 [Example 98, N^6-(4-methoxybenzyl)-N^1-methyl-4-phenyl-2,7-naphthyridine-1,6-diamine] | Kd (TYK2 JH2; [4]): 1000 to 10000 nM; IC50 [1, 5]: > 500 nM
13 | ≤ 100 nM | ≤ 500 nM |  | CNc1ncc(C#Cc2ccn3ccnc3c2)c2cc(NC(=O)C3CC3)ncc12 [Example 626, N-(5-(imidazo[1,2-a]pyridin-7-ylethynyl)-8-(methylamino)-2,7-naphthyridin-3-yl)cyclopropanecarboxamide] | 
14 | ≤ 100 nM | ≤ 500 nM |  | CNc1ncc(C#Cc2cc3sc(C)cc3cn2)c2cc(NC(=O)C3CC3)ncc12 [Example 968, N-[8-(methylamino)-5-[2-(2-methylthieno[3,2-c]pyridin-6-yl)ethynyl]-2,7-naphthyridin-3-yl]cyclopropanecarboxamide] | 
15 |  |  | ≤ 100 nM | [2H]C([2H])([2H])Nc1ncc(-c2nc3cc(OC)ccc3o2)c2cc(NC(=O)[C@H]3C[C@H]3C)ncc12 (single isomer, unassigned) [Example 438] | IC50 ([1]; IFNa-stimulated, read-out: Cellular_THP1_IFNa-pSTATS_TYK2): ≤ 500 nM
16 |  | ≤ 500 nM | ≤ 100 nM | CNc1ncc(-c2nc3cc(N4CCOCC4)ccc3o2)c2cc(NC(=O)C3(F)CC3)ncc12 [Example 425, 1-fluoro-N-(8-(methylamino)-5-(5-morpholinobenzo[d]oxazol-2-yl)-2,7-naphthyridin-3-yl)cyclopropane-1-carboxamide] | 
17 | ≤ 100 nM | ≤ 500 nM |  | CNc1ncc(C#Cc2cc3ccc(F)cn3n2)c2cc(NC(=O)C3CC3)ncc12 [Example 767, N-(5-((6-fluoropyrazolo[1,5-a]pyridin-2-yl)ethynyl)-8-(methylamino)-2,7-naphthyridin-3-yl)cyclopropanecarboxamide] | 
18 |  |  |  | CNc1ncc(-c2ccccc2)c2cc(NC(=O)C3CC3)nnc12 [Example 178, N-(8-(methylamino)-5-phenylpyrido[3,4-c]pyridazin-3-yl)cyclopropanecarboxamide] | Kd (TYK2 JH2; [4]): ≤ 100 nM; IC50 [1, 5]: > 500 nM
19 |  | ≤ 500 nM | ≤ 100 nM | CNc1ncc(-c2nc3cc(OC)ccc3o2)c2cc(NC(=O)[C@@H]3C[C@@H]3C(F)F)ncc12 (racemic) [Example 393, 2-(difluoromethyl)-N-(5-(5-methoxybenzo[d]oxazol-2-yl)-8-(methylamino)-2,7-naphthyridin-3-yl)cyclopropane-1-carboxamide] | 
20 |  | ≤ 500 nM | ≤ 100 nM | CNc1ncc(-c2nc3ccc(S(C)(=O)=O)cn3n2)c2cc(NC(=O)C3CC3)ncc12 [Example 497, N-(8-(methylamino)-5-(6-(methylsulfonyl)-[1,2,4]triazolo[1,5-a]pyridin-2-yl)-2,7-naphthyridin-3-yl)cyclopropanecarboxamide] | 
21 | ≤ 100 nM | ≤ 500 nM |  | CNc1ncc(C#Cc2ccc(OCC3(C)COC3)cc2)c2cc(NC(=O)C3CC3)ncc12 [Example 701, N-(8-(methylamino)-5-((4-((3-methyloxetan-3-yl)methoxy)phenyl)ethynyl)-2,7-naphthyridin-3-yl)cyclopropanecarboxamide] | 
22 | ≤ 100 nM | ≤ 500 nM |  | CNc1ncc(C#Cc2cc3ccc(OC)cn3n2)c2cc(NC(=O)C3CC3)ncc12 [Example 766, N-(5-((6-methoxypyrazolo[1,5-a]pyridin-2-yl)ethynyl)-8-(methylamino)-2,7-naphthyridin-3-yl)cyclopropanecarboxamide] | 
23 |  | > 500 nM | ≤ 100 nM | CNc1ncc(-c2nc3cc(C(=O)O)ccc3o2)c2cc(NC(=O)C3CC3)ncc12 [Example 214, 2-(6-(cyclopropanecarboxamido)-1-(methylamino)-2,7-naphthyridin-4-yl)benzo[d]oxazole-5-carboxylic acid] | 
24 | ≤ 100 nM | ≤ 500 nM |  | CNc1ncc(-c2ccc(Oc3ncn(C)n3)cc2)c2cc(NC(=O)C3CC3)ncc12 [Example 865, N-(5-(4-((1-methyl-1H-1,2,4-triazol-3-yl)oxy)phenyl)-8-(methylamino)-2,7-naphthyridin-3-yl)cyclopropanecarboxamide] | 
25 | ≤ 100 nM | ≤ 500 nM |  | CNc1ncc(C#Cc2ccc(OC)cc2CO)c2cc(NC(=O)C3CC3)ncc12 [Example 965, N-[5-[2-[2-(hydroxymethyl)-4-methoxy-phenyl]ethynyl]-8-(methylamino)-2,7-naphthyridin-3-yl]cyclopropanecarboxamide] | 
26 | ≤ 100 nM | ≤ 500 nM |  | CNc1ncc(-c2nc3cc(-c4ccn(C)n4)ccc3o2)c2cc(NC(=O)C3CC3)ncc12 [Example 939, N-(5-(5-(1-methyl-1H-pyrazol-3-yl)benzo[d]oxazol-2-yl)-8-(methylamino)-2,7-naphthyridin-3-yl)cyclopropanecarboxamide] | 
27 |  | > 500 nM | ≤ 100 nM | O=C(Nc1cc2c(-c3nc4ccccc4o3)cnc(O)c2cn1)C1CC1 [Example 371, N-(5-(benzo[d]oxazol-2-yl)-8-hydroxy-2,7-naphthyridin-3-yl)cyclopropanecarboxamide] | 
